{"source": "patent US6673768B1", "about": "“Transgenic animal models for cardiac hypertrophy and methods of use thereof (treating)” (Board of Regents, The University of Texas System, priority 1997, dated 2004)", "key": {"[1]": {"system": "neonatal rat cardiomyocytes", "experiment": "AngII- and PE-induced hypertrophy of primary cardiomyocytes (anti-α-actinin staining, cell size and sarcomeric assembly)", "assay_type": "cell-based", "conditions": "72 hr; AngII 10 nM or PE 10 μM", "procedure": "To visualize primary cardiomyocytes and their sarcomeric organization, anti-α-actinin mouse monoclonal antibody was used (Sigma). […] Cells were washed in 1×phosphate-buffered saline (PBS), fixed in 3.7% paraformaldehyde for 5 minutes, washed three times with 1×PBS and then pre-blocked in 1×PBS containing 2% horse serum, 2% BSA, and 0.1% non-ionic detergent NP40 for 30 minutes. Anti-α-actinin antibody was added at a dilution of 1:800 in fresh preblock solution and incubated for an additional 30 minutes. Subsequently, the cells were washed three times in 1×PBS with 0.1% NP40. Anti-mouse TRITC-conjugated secondary antibody was then added at a dilution of 1:400 for 30 minutes in pre-block solution and the cells were again washed three times in 1×PBS containing 0.1% NP40. Nuclear staining for DNA was performed with 0.5 μg/ml of bisbenzimide in PBS for 15 minutes followed by three rinses with PBS."}, "[2]": {"system": "atrial natriuretic factor (ANF) mRNA", "experiment": "ANF mRNA dot blot in primary cardiomyocytes treated with AngII", "assay_type": "cell-based, rat", "conditions": "AngII exposure", "description": "A-F, Primary rat cardiocytes in serum-free medium were stimulated with AngII (10 nM) or PE (10 μm) for 72 hours. Cells were then fixed and stained with anti-α-actinin antibody to reveal sarcomeres and Hoechst stain to reveal nuclei. […] G, Total RNA was isolated from primary cardiocyte cultures treated with AngII in the presence or absence of CsA as in A and analyzed for expression of GAPDH and ANF transcripts by dot blot. H, Primary rat cardiomyocytes were transiently transfected with a luciferase reporter gene linked to 3 tandem copies of the NF-AT consensus binding site. Cells were then treated with AngII or PE in the presence or absence of CsA, as described above. Forty-eight hours later, cells were harvested and luciferase activity was determined.\nTo determine whether changes in cardiomyocyte gene expression in response to AngII were also controlled by a calcineurin-dependent signaling pathway, the expression of ANF mRNA in cardiomyocytes treated with AngII was examined in the presence and absence of CsA by a dot blot assay. […] GAPDH mRNA was measured as a control.\nRNA analysis. Total RNA was collected and purified with Triazol reagent (Gibco BRL) as recommended. […]"}}, "data": [{"substance": "angiotensin II [AngII, humoral factor which induces the hypertrophic response in cardiomyocytes]", "values": [{"measurement": "cardiomyocyte size and sarcomeric assembly after exposure to agonist", "setting": "[1]", "result": "dramatic increase in size and sarcomeric assembly"}, {"measurement": "increase in ANF mRNA", "setting": "[2]", "result": 15, "unit": "fold"}]}]}
